“And” between values parts separate entries of the source, which are not always exact repeats. Equal values may be shown once.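 These data come from cells grown in 96-well plates and exposed to compound for 48 hours at five concentrations. GI50 is the concentration that inhibits growth by half. TGI: concentration producing complete growth inhibition.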 Where a SMILES comes first, the peptide text is derived from it.

Common to all, as to assay: NCI anticancer screen, dose series, 48 h
Assay [1] relates to OVCAR-3 ovarian.
Assay [2] relates to U251 CNS.
The test system of assay [3] is SR leukemia.
The test system of assay [4] is HT29 colon.
The subject of assay [5] is SK-MEL-5 melanoma.
Assay [6] concerns COLO 205 colon.
The subject of assay [7] is OVCAR-4 ovarian.
For assay [8], the system named is SNB-75 CNS.
Assay [9] relates to SK-OV-3 ovarian.
Assay [10] concerns RPMI-8226 leukemia.
The subject of assay [11] is MALME-3M melanoma.
In assay [12] the test system is EKVX NSCLC.
Assay [13] deals with HOP-92 NSCLC.

With `CCN(CC)Cc1cc(Nc2ccnc3ccc4nn(C)nc4c23)ccc1O`, the TGI in assay [1] is 68 µM; in assay [2], 45.5 µM; in [3], above 100 µM; in assay [4], 20.9 µM; in assay [5] it was 29.9 µM; in assay [6], 19.1 µM. The TGI in assay [7] is 37 µM; in assay [8], 26.1 µM; in assay [9], 57.7 µM; in assay [10], above 100 µM; in [11], 31.3 µM.

Turning to `COc1cc(C2OC[C@@H]3C(=O)OC[C@H]23)cc(O)c1OC` (some centres not stated), the TGI in assay [1], in assay [2], in assay [3], in assay [4], in assay [12] and in [5] was above 100 µM in each case. In addition, the TGI in assay [6], in assay [7], in assay [8], in assay [9], in assay [10] and in assay [13] was above 100 µM each time.

`COC(=O)[C@]12CSC[C@H]1C[C@H](c1cccc3ccccc13)N2`: the TGI in assay [1], in [2], in assay [3], in [12], in [5] and in [6] was above 100 µM throughout. The TGI in [8], in [9], in assay [10] and in [13] was above 100 µM each time.

Take `S=C1CC(c2ccccc2)Sc2cc(Cl)ccc2N1` (configuration not stated): the TGI is 8.49 µM in [1]; 17.7 µM in assay [2]; 83.7 µM in assay [3]; above 100 µM in assay [4]; above 100 µM in assay [12]; 29.4 µM in assay [5]. Besides, the TGI was above 100 µM in assay [6]; 28 µM in assay [7]; 20.8 µM in [8]; 19.9 µM in assay [9]; above 100 µM in assay [10]; 93.6 µM in assay [11].

Turning to `CC(=O)Oc1ccc2cc(-c3ccc(OC(C)=O)c(OC(C)=O)c3)c(=O)oc2c1`, the TGI in assay [1], in assay [2], in assay [3], in assay [4], in assay [12] and in assay [6] was above 100 µM throughout. Further, the TGI in [7] is above 100 µM; in assay [10] it was above 100 µM; in assay [13], 95.2 µM; in assay [11] it was above 100 µM.

As to `Cc1cc(S(=O)(=O)NC(=NCCc2ccccc2)NN)c(S)cc1Cl`, the TGI in assay [1] is 74.8 µM; in [2], 32.4 µM; in [3] it was above 100 µM; in [4], above 100 µM; in assay [12], above 100 µM; in assay [5], 37.9 µM. Besides, the TGI in assay [6] was above 100 µM; in [7], above 100 µM; in [8] it was 69.7 µM; in assay [9] it was 53.7 µM; in [10], above 100 µM; in [11], 68.6 µM.

In the case of `COC(=O)C(=O)C(/C(=N/N)C(=O)Nc1ccccc1C(N)=O)c1nc2ccc([N+](=O)[O-])cc2[nH]c1=O` (configuration not stated), the TGI in assay [1], in [2], in [3], in assay [4], in assay [12] and in assay [5] was above 100 µM in each case. The TGI in [6], in assay [7], in assay [10] and in assay [11] was above 100 µM in each case.

Take `Cc1ccc(C(=O)N/N=C(\N=Nc2ccccc2Cl)c2ccc(N(C)C)cc2)cc1`: the TGI in assay [1] was above 100 µM; in [2], above 100 µM; in assay [3], 68.7 µM; in assay [4] it was above 100 µM; in [12], above 100 µM; in assay [5], above 100 µM. In addition, the TGI is above 100 µM in assay [6]; 78.4 µM in [7]; above 100 µM in assay [9]; above 100 µM in assay [10]; above 100 µM in assay [13].

As to `O=[N+]([O-])C(/C=C(\Cl)[N+](=O)[O-])=C(N1CCCCC1)N1CCCCC1`, the TGI in assay [1] was 54.7 µM; in assay [2], above 100 µM; in [3] it was 51.1 µM; in assay [4], above 100 µM; in [12], above 100 µM; in [5], 46.5 µM. Further, the TGI is 55.5 µM in [6]; above 100 µM in [7]; above 100 µM in assay [9]; above 100 µM in assay [10]; above 100 µM in assay [13]; 21.4 µM in [11].

`C=C1c2nc3ccccc3n2C=C(c2ccc(Cl)cc2)N1c1ccc(OCCN2CCCCC2)cc1`: the TGI in [1] was above 45 µM; in assay [2], above 100 µM; in assay [4], above 100 µM; in [12], above 100 µM; in [5], above 45 µM; in assay [6] it was above 100 µM. Moreover, the TGI in assay [7] was above 45 µM; in [9], above 100 µM; in assay [10] it was 45 µM; in [13], above 100 µM; in assay [11] it was 45 µM and > 100 µM. Also, the GI50 in assay [2] was 3.75 µM; in assay [3], 0.0439 µM; in assay [4], above 100 µM; in assay [6], above 100 µM; in assay [9], above 100 µM; in assay [13], above 100 µM. In [11], the GI50 was 0.415 µM.

Take `CCCCC1(O)CC2CC1C(C)C2(C)C` (configuration not stated): the TGI in assay [1], in [2], in assay [3], in assay [4], in [12] and in assay [5] was above 100 µM each time. In addition, the TGI in assay [6], in assay [7], in assay [8], in [9], in [10] and in assay [11] was above 100 µM throughout.

In the case of `NC(=O)Cn1c(=O)oc2cc(C(=O)CN3CCOCC3)ccc21`, the TGI in assay [1], in assay [2], in assay [3], in assay [4], in [12] and in assay [5] was above 100 µM in each case. The TGI in assay [6], in assay [8], in assay [9], in assay [10] and in assay [11] was above 100 µM in each case.

Turning to `COC(=O)Cn1c(=O)oc2nc(-c3ccccc3)cc(C(F)(F)F)c21`, the TGI is above 100 µM in [1]; above 100 µM in [2]; above 100 µM in [3]; above 100 µM in assay [4]; above 100 µM in assay [12]; 61.9 µM in assay [5]. For the same compound, the TGI in [6] is above 100 µM; in assay [7], above 100 µM; in assay [8] it was above 100 µM; in [9] it was above 100 µM; in [10], 95.8 µM; in assay [13] it was 89.3 µM.

With `CCC1CCC2c3c([nH]c4ccc(C)cc34)C3C(=O)N(N(C)C)C(=O)C3C2C1` (configuration not stated), the TGI in assay [1] is 2.98 µM; in assay [2], above 100 µM; in assay [3], 48.6 µM; in assay [4] it was above 100 µM; in assay [12], above 100 µM; in assay [5], above 100 µM. Moreover, the TGI in [6] was above 100 µM; in assay [7], above 100 µM; in assay [9] it was above 100 µM; in [10] it was above 88.3 µM; in assay [13] it was above 100 µM; in [11] it was 39.2 µM.

As to `O=C(NCCCN(CCCCN(CCCNC(=O)c1cc(S(=O)(=O)O)cc(O)c1O)C(=O)c1cc(S(=O)(=O)O)cc(O)c1O)C(=O)c1cc(S(=O)(=O)O)cc(O)c1O)c1cc(S(=O)(=O)O)cc(O)c1O`, the TGI in assay [2], in [3], in assay [4], in assay [5], in [6] and in [7] was above 100 µM throughout. Moreover, the TGI in [8], in assay [13] and in assay [11] was above 100 µM in each case.

With `CCOC(=O)N/N=C(\CC)OCC`, the TGI in assay [1], in [3], in assay [12], in [5], in assay [6] and in assay [8] was above 100 µM in each case. Moreover, the TGI in assay [9] and in [11] was above 100 µM each time.

As for `C#CCOCn1cc(C)c(=O)[nH]c1=O`, the TGI in assay [2], in [3], in assay [4], in assay [12], in assay [5] and in assay [6] was above 100 µM in each case. For the same compound, the TGI in assay [8], in [9], in assay [10] and in assay [11] was above 100 µM in each case.

Consider `Cc1ccc(C(=O)Oc2ccc(/C=C3\CCC/C(=C\c4ccc(OC(=O)c5ccc(C)cc5)cc4)C3=O)cc2)cc1`, for which the TGI in assay [1], in [2], in [3], in [4], in [12] and in assay [5] was above 100 µM throughout. For the same compound, the TGI in assay [6], in [7], in assay [8], in [10] and in [13] was above 100 µM throughout.

Consider `COc1ccccc1NC(=O)CC(=O)N1N=C(c2ccccc2)C(N=Nc2ccc(Cl)cc2)C1=O` (configuration not stated), for which the TGI in [1] was 74.3 µM; in [2], above 100 µM; in [3], above 100 µM; in assay [4] it was above 100 µM; in assay [12], above 100 µM; in [5], 42 µM. Also, the TGI in assay [6] is above 100 µM; in [7] it was 56.6 µM; in assay [8] it was 55 µM; in assay [9] it was 51.8 µM; in assay [10], above 100 µM.

On to `CCC(C)C(NC(=O)C(CC(C)C)NC(=O)CNC(=O)C(NC(=O)C1CCCN1C(=O)C(CC(C)C)NC(=O)C(N)Cc1ccccc1)C(C)CC)C(=O)NC(CC(C)C)C(N)=O` (configuration not stated) (H-FLPIGLIL-NH2; configuration not given here), for which the TGI in [1], in assay [2], in assay [3], in [4], in assay [12] and in assay [5] was above 75 µM in each case. Also, the TGI in assay [6], in assay [7], in assay [9], in assay [10], in assay [13] and in assay [11] was above 75 µM in each case.

`O=c1[nH]c(=O)n(CCOc2ccc(Cl)cc2)cc1Nc1ccccc1`: the TGI in assay [1], in assay [2], in assay [3], in [4], in assay [12] and in assay [5] was above 100 µM each time. For the same compound, the TGI in assay [6], in [7], in assay [10] and in assay [13] was above 100 µM each time.

With `CC(C)(C)[Si](C)(C)OCC1OC(n2ccc(=O)[nH]c2=O)C(O[Si](C)(C)C(C)(C)C)[C@]12O[C@@H]2CO` (some centres not stated), the TGI in assay [1] is 28.4 µM; in assay [2], 42.6 µM; in assay [3] it was above 100 µM; in assay [4], 23.8 µM; in assay [12] it was 36.6 µM; in [5], 34.7 µM. The TGI in assay [6] is 42.9 µM; in [7] it was 47.4 µM; in assay [8], 40.4 µM; in [9] it was 30.5 µM; in assay [10] it was above 100 µM; in assay [13], 32.8 µM.

With `Cc1cc(C)nc(NS(=O)(=O)c2ccc(NC(=O)NC(F)(F)F)cc2)n1`, the TGI in [2], in [3], in assay [4], in assay [12], in assay [5] and in assay [6] was above 100 µM each time. Further, the TGI in assay [8], in assay [9] and in assay [10] was above 100 µM throughout.

(Values after PubChem BioAssay (NCI).)
